Assay results published in article PMC8880783, “Structure and electron transfer pathways of an electron-bifurcating NiFe-hydrogenase” (Science Advances, 2022).

Columns and labels:
NiFe-HydABCSL [1] = biological target: T1, NiFe-HydABCSL (Acetomicrobium mobile, UniProt I4BYB5); assay: cryo-EM structure of complex, […] Å; type: binding; details: 100 µM FMN with 100 µM NADH and 10 µM A. mobile Fd; site in HydB Rossmann fold, next to B1 [4Fe-4S] cluster; stacked on FMN in HydB; modelled as NAD(H)
T1 construct: gene Anamo_1678; native purification from A. mobile, untagged; dimer of heteropentamers (~500 kDa by SEC; 233 kDa per pentamer); with Electron-bifurcating NiFe-hydrogenase subunit HydA; Electron-bifurcating NiFe-hydrogenase subunit HydC (NADH:ubiquinone oxidoreductase 24 kD subunit); NiFe-hydrogenase small subunit HydS; NiFe-hydrogenase large subunit HydL

NiFe-HydABCSL [2] = biological target: T1, NiFe-HydABCSL; assay: H2-dependent bifurcation assay, Fd reduction at […] nm; type: biochemical; details: 100% H2, 40 µM A. mobile Fd, 1 mM NAD, enzyme retains about 0.35 FMN per mole
[3] = biological target: A. mobile NiFe-HydABCSL hydrogenase (heteropentamer) (A. mobile (endogenous in A. mobile cells)); assay: cryo-EM structure; single-particle cryo-EM of the enzyme as purified, flavin-free apo state, C2 symmetry, 3.2 Å
[4] = biological target: A. mobile NiFe-HydABCSL hydrogenase (heteropentamer) (A. mobile (endogenous in A. mobile cells)); assay: SEC; HiLoad Superdex 200 prepgrade XK 16/60, 25 mM tris pH 8.0, 300 mM NaCl, 5% glycerol, 2.5% trehalose, anaerobic; decamer to pentamers
NiFe-HydABCSL [5] = biological target: T1, NiFe-HydABCSL; assay: H2-dependent bifurcation assay, simultaneous Fd and NAD reduction; type: biochemical; details: 100% H2, 40 µM A. mobile Fd, 10 µM FMN, 1 mM NAD

With `NC(=O)C1=CN([C@@H]2O[C@H](COP(=O)(O)OP(=O)(O)OC[C@H]3O[C@@H](n4cnc5c(N)ncnc54)[C@H](O)[C@@H]3O)[C@@H](O)[C@H]2O)C=CC1` [NADH] the structure (NiFe-HydABCSL [1]) was “FMN and NADH had well-defined densities in HydB”.

With `Cc1cc2nc3c(=O)[nH]c(=O)nc-3n(C[C@H](O)[C@H](O)[C@H](O)COP(=O)(O)O)c2cc1C` [FMN] the “% stimulation” value (NiFe-HydABCSL [2]; 10 µM FMN) was ~ 35%.

Work on “A. mobile NiFe-HydABCSL hydrogenase (heteropentamer) (complex)” yielded a stoichiometry N [3] of 2 and a stoichiometry N [4] of 2.

In the case of `Cc1cc2nc3c(=O)[nH]c(=O)nc-3n(C[C@H](O)[C@H](O)[C@H](O)COP(=O)(O)OP(=O)(O)OC[C@H]3O[C@@H](n4cnc5c(N)ncnc54)[C@H](O)[C@@H]3O)c2cc1C` [FAD], the “% stimulation” value (NiFe-HydABCSL [2]; FAD concentration not given) is reported as ~ 10%.

For `NC(=O)c1ccc[n+]([C@@H]2O[C@H](COP(=O)(O)OP(=O)(O)OC[C@H]3O[C@@H](n4cnc5c(N)ncnc54)[C@H](O)[C@@H]3O)[C@@H](O)[C@H]2O)c1` [NAD], the turnover (NiFe-HydABCSL [5]) was “NiFe-HydABCSL reduced the Fd only if NAD was also added”.
